Data published in patent US10907208B2, “Method for screening agents promoting skin barrier function and method for evaluating skin barrier function taking epidermal serine racemase and/or D-serine level as indicator” (Shiseido Company, Ltd, priority 2014, dated 2021).

Assays:
Assay type in all cases: cell-based, human
cornuline (CRNN) gene = assay: Real-time PCR gene expression in three-dimension culture of keratinocytes (3D skin model), cornuline; settings: D-Ser 100 μM, 7 days, corrected by MRPL19, FIG. 6
Description: (§1) Human normal keratinocytes were seeded on polycarbonate insert (Millipore) having 12 mm of diameter and 0.4 μm of bore diameter. Then, Human normal keratinocytes were cultured for three days under 5% CO2 atmosphere at 37° C. by adding Cnt-Prime, Epithelial Culture Medium (CELLnTEC Advanced Cell Systems AG) inside and outside of the insert, followed by being cultured for 24 hours by substituting with Cnt-prime 3D Barrier medium (CELLnTEC Advanced Cell Systems AG). […]
(§2) Total RNA extracted by means of Trizol reagent (Invitrogen) was subjected to NanoDrop 1000 Spectrophotometer (Thermo Fisher Scientific) to determine RNA concentration, and then was converted to cDNA by using SuperScriptVIL0 (Invitrogen). Relative expression amount of genes of fillagrin (FLG), cornuline (CRNN) and repetin (RPTN), and mitochondrial ribosome protein L19 (MRPL19) which was used as an internal control gene was determined. […]
(§3) Relative expression amount of the target gene of each group was determined by means of correction using the expression amount of mitochondrial ribosome protein L19 gene (MRPL19) as an internal control (FIGS. 5-7). […]

repetin (RPTN) gene = assay: Real-time PCR gene expression in three-dimension culture of keratinocytes (3D skin model), repetin; settings: D-Ser 100 μM, 7 days, corrected by MRPL19, FIG. 7
Description: as §1, §2, §3

fillagrin (FLG) gene = assay: Real-time PCR gene expression in three-dimension culture of keratinocytes (3D skin model), fillagrin; settings: D-Ser 100 μM, 7 days, corrected by MRPL19, FIG. 5
Description: as §1, §2, §3

Structure (SMILES): N[C@H](CO)C(=O)O [D-serine]
- expression level of cornuline gene (cornuline (CRNN) gene): increases
- expression level of cornuline gene (cornuline (CRNN) gene; listed as D-Ser): increased
- expression level of repetin gene (repetin (RPTN) gene): increases
- expression level of repetin gene (repetin (RPTN) gene; listed as D-Ser): increased
- expression level of fillagrin gene (fillagrin (FLG) gene): increases
- expression level of fillagrin gene (fillagrin (FLG) gene; listed as D-Ser): increased
